According to ChEMBL document CHEMBL1795329, “QSPR modeling of octanol/water partition coefficient for vitamins by optimal descriptors calculated with SMILES” (Eur J Med Chem, 2008):

Experiment: physchem
Settings: octanol/water

| SMILES | logP |
| --- | --- |
| Clc1ccc(Cl)c(Cl)c1 | 4.28 |
| Cc1ccccc1C [O-XYLENE] | 3.44 |
| Clc1cccc(Cl)c1-c1ccccc1 | 5.46 |
| Clc1ccc(-c2ccccc2Cl)cc1 | 5.46 |
| Cc1c(C)c2c3ccccc3ccc2c2ccccc12 | 6.96 |
| c1ccc2cc3c(cc2c1)-c1cccc2cccc-3c12 [BENZO(K)FLUORANTHENE] | 6.12 |
| Cc1ccc2c(ccc3ccccc32)c1 | 5.14 |
| Clc1cccc2ccccc12 | 4.03 |
| CCSCC [DIETHYL SULFIDE] | 1.9 |
| c1ccc2c(c1)ccc1cc3c(ccc4ccccc43)cc12 | 6.84 |
| c1ccc2c(c1)c1cccc3ccc4cccc2c4c31 [BENZO[E]PYRENE] | 6.12 |
| Cl/C=C/Cl | 1.51 |
| Clc1cccc(Cl)c1Cl | 4.28 |
| Clc1cc(-c2ccccc2)c(Cl)c(Cl)c1Cl | 6.88 |
| C[S+](C)CC[C@H](N)C(=O)O [METHYLMETHIONINE SULFONIUM CHLORIDE] | 0.28 |
| Clc1ccccc1 [CHLOROBENZENE] | 2.85 |
| Cc1cccc2c1Cc1ccccc1-2 | 4.87 |
| Clc1ccc2ccccc2c1 | 4.03 |
| CCCCCCC [HEPTANE] | 4.4 |
| Clc1cc(Cl)c(Cl)c(Cl)c1 | 4.99 |
| CCCCC(C)C | 4.27 |
| ClC(Cl)C(Cl)Cl [1,1,2,2-TETRACHLOROETHANE] | 2.64 |
| CCCCCCl | 3.05 |
| Cc1c2ccccc2cc2ccccc12 | 5.14 |

| SMILES | logP |
| --- | --- |
| Clc1cccc(Cl)c1 | 3.57 |
| CCCCCCCCl | 4.11 |
| Clc1ccc(Cl)c(-c2ccccc2)c1 | 5.46 |
| O=C(O)CCCC[C@@H]1SC[C@@H]2NC(=O)N[C@@H]21 [BIOTIN] | 0.39 |
| Clc1ccccc1-c1ccccc1 | 4.74 |
| CCCC(C)C | 3.74 |
| Cc1cc(O)c2ccccc2c1O [VITAMIN K3H2] | 2.76 |
| C=CCC | 2.27 |
| CCc1ccccc1 [ETHYLBENZENE] | 3.32 |
| Cc1cccc(Cl)c1 | 3.5 |
| C1CCCC1 [CYCLOPENTANE] | 2.79 |
| C1CCCCC1 [CYCLOHEXANE] | 3.35 |
| c1ccc2c(c1)c1ccccc1c1ccccc21 | 5.66 |
| NC1=C2NCN=C2N=CN1 [VITAMIN B4] | -0.09 |
| Cc1ccc2cc3ccccc3cc2c1 | 5.14 |
| Cc1cc(C)c(C)cc1C | 4.74 |
| ClC=C(Cl)Cl [TRICHLOROETHYLENE] | 2.27 |
| c1ccc2c(c1)-c1cccc3c1c-2cc1ccccc13 [BENZO[B]FLUORANTHENE] | 6.12 |
| Cc1ccc(C)c(C)c1C | 4.74 |
| c1ccc2cc3c(ccc4ccccc43)cc2c1 | 5.66 |
| c1ccc2c(c1)ccc1cc3ccc4ccccc4c3cc12 | 6.84 |
| Cc1ccccc1Cl | 3.5 |
| Cc1ccc(C)c2c(C)cccc12 | 5.26 |
| CCc1c2ccccc2cc2c1ccc1ccccc12 | 6.84 |

| SMILES | logP |
| --- | --- |
| Cc1ccc(C)cc1 [P-XYLENE] | 3.44 |
| Cc1cccc(C)c1 [M-XYLENE] | 3.44 |
| CCC(C)C | 3.21 |
| Brc1ccccc1Br | 3.59 |
| CCCCCCCCCCC | 6.51 |
| CC(C)(C)c1ccccc1 [tert-Butylbenzene] | 4.12 |
| ClC(Cl)(Cl)Cl [CARBON TETRACHLORIDE] | 2.88 |
| Clc1cc(Cl)c(Cl)c(Cl)c1Cl [PENTACHLOROBENZENE] | 5.71 |
| CCc1cccc2ccccc12 | 4.49 |
| Cc1cc2c3ccccc3ccc2c2ccccc12 | 6.31 |
| C1C2CC3CC1CC(C2)C3 | 3.98 |
| CCCC [BUTANE] | 2.81 |
| c1cc2c3c(c4ccc5ccccc5c4cc3c1)CC2 [CHOLANTHRENE] | 6.42 |
| ClCCCl [1,2-DICHLOROETHANE] | 1.46 |
| Cc1c2ccccc2cc2ccc3ccccc3c12 | 6.31 |
| Cc1ccc2ccccc2c1 | 3.96 |
| ClC(Cl)=C(Cl)Cl [TETRACHLOROETHYLENE] | 3.02 |
| Cc1cccc2ccc3cc4ccccc4cc3c12 | 6.31 |
| Cc1cc2ccccc2cc1C | 4.61 |
| Clc1cc(Cl)c(-c2ccccc2)cc1Cl | 6.17 |
| Clc1cc(Cl)c(-c2ccccc2)c(Cl)c1 | 6.17 |
| Cc1cc(C)c(C)c(C)c1C | 5.39 |
| CC(C)CCC[C@@H](C)[C@H]1CC[C@H]2C3=CC=C4C[C@@H](O)CC[C@]4(C)[C@H]3CC[C@]12C | 8.65 |
| c1ccc2c(c1)Cc1cc3ccccc3cc1-2 [BENZO[B]FLUORENE] | 5.4 |

| SMILES | logP |
| --- | --- |
| Cc1c(C)c(C)c(C)c(C)c1C [HEXAMETHYLBENZENE] | 6.04 |
| Cc1ccc(C(C)C)cc1 [P-CYMENE] | 4.37 |
| BrCCBr [1,2-DIBROMOETHANE] | 1.74 |
| Cc1ncc(C[n+]2csc(CCO)c2C)c(N)n1 [THIAMINE ION] | -3.93 |
| Brc1ccc(Br)cc1 | 3.87 |
| CC(=O)Oc1cc(C)c(OC(C)=O)c2ccccc12 [ACETOMENAPHTHONE] | 3.59 |
| Nc1ncnc2c1ncn2[C@@H]1O[C@H](COP(=O)(O)O)[C@@H](O)[C@H]1O [ADENOSINE PHOSPHATE] | -1.68 |
| CCC(C)(C)c1ccccc1 [tert-Amylbenzene] | 4.65 |
| Cc1cc2ccccc2c2ccc3ccccc3c12 | 6.31 |
| Clc1ccc2c(ccc3ccccc32)c1 | 5.2 |
| CCCc1ccccc1 | 3.85 |
| CCCCCCCCCC [DECANE] | 5.98 |
| Clc1cc(Cl)c(-c2ccccc2Cl)cc1Cl | 6.88 |
| c1ccc2c3c(ccc2c1)-c1cccc2cccc-3c12 [BENZO(J)FLUORANTHENE] | 6.12 |
| CCCCl | 1.99 |
| Cc1c2ccccc2c(C)c2ccccc12 | 5.79 |
| Clc1ccccc1Cl [1,2-DICHLOROBENZENE] | 3.57 |
| Cc1ccc(C)c(C)c1 | 4.09 |
| c1ccc2c(c1)ccc1ccccc12 | 4.49 |
| Clc1c(Cl)c(Cl)c(Cl)c(Cl)c1Cl [PERCHLOROBENZENE] | 6.42 |
| Clc1ccc(Cl)cc1 [1,4-DICHLOROBENZENE] | 3.57 |
| Cc1cccc2ccccc12 | 3.96 |
| Cc1cc(C)cc(C)c1 | 4.09 |
| c1ccc2c(c1)Cc1c-2ccc2ccccc12 [BENZO(A)FLUORENE] | 5.4 |

| SMILES | logP |
| --- | --- |
| CCCCCCCC [OCTANE] | 4.93 |
| c1ccc(-c2ccccc2)cc1 [BIPHENYL] | 4.03 |
| Clc1cc(Cl)c(Cl)cc1Cl | 4.74 |
| C1CCCCCC1 [CYCLOHEPTANE] | 3.91 |
| Cc1cccc2c(C)cccc12 | 4.61 |
| Cc1ccc2cc(C)ccc2c1 | 4.61 |
| CCCCCC [HEXANE] | 3.87 |
| CC(Cl)(Cl)Cl [TRICHLOROETHANE] | 2.48 |
| Clc1cc(Cl)cc(Cl)c1 [1,3,5-TRICHLOROBENZENE] | 4.28 |
| Cc1ccc(Cl)cc1 | 3.5 |
| c1ccc2c(c1)Cc1ccccc1-2 [FLUORENE] | 4.22 |
| c1cc2cccc3c4cccc5cccc(c(c1)c23)c54 | 6.12 |
| CCCCCCCCC [NONANE] | 5.46 |
| Cc1cccc(C)c1C | 4.09 |
| C=CCCC | 2.79 |
| Cc1c2ccccc2cc2c1ccc1ccccc12 | 6.31 |
| Cc1cc(C)c(C)c(C)c1 | 4.74 |
| c1ccc2c(c1)ccc1c3ccccc3ccc21 | 5.66 |
| CCCCCl [BUTYL CHLORIDE] | 2.52 |
| CCCCCCCl | 3.58 |
| CCCCC [PENTANE] | 3.34 |
| C1CCCCCCC1 [CYCLOOCTANE] | 4.47 |
| c1ccc(CCc2ccccc2)cc1 | 4.89 |
| CCCCc1ccccc1 [BUTYLBENZYL] | 4.74 |

| SMILES | logP |
| --- | --- |
| C1=CCCCC1 [CYCLOHEXENE] | 2.81 |
| c1ccc2c(c1)cc1ccc3cccc4ccc2c1c34 | 6.12 |
| FC(Cl)(Cl)Cl [TRICHLOROMONOFLUOROMETHANE] | 2.44 |
| Nc1nc2ncc(CNc3ccc(C(=O)N[C@@H](CCC(=O)O)C(=O)O)cc3)nc2c(=O)[nH]1 [FOLIC ACID] | -2.81 |
| c1cc2ccc3cccc4ccc(c1)c2c34 [PYRENE] | 4.95 |
| c1ccc2ccccc2c1 | 3.32 |
| Cc1ccc(C)c2ccccc12 | 4.61 |
| c1cc2c3c(cccc3c1)CC2 | 4.07 |
| Cc1ccc2c3ccccc3c3cccc4ccc1c2c43 | 6.77 |
| CC(C)(CO)[C@@H](O)C(=O)NCCC(=O)O [PANTOTHENIC ACID] | -1.69 |
| CCCl [ETHYL CHLORIDE] | 1.47 |
| c1ccc2c(c1)-c1cccc3cccc-2c13 [FLUORANTHENE] | 4.95 |
| Clc1ccc(-c2ccccc2Cl)c(Cl)c1 | 6.17 |
| CC(C)c1ccccc1 [ISOPROPYLBENZENE] | 3.72 |
| c1cc2ccc3ccc4ccc5cccc6c(c1)c2c3c4c56 | 6.58 |
| CSC | 0.842 |
| c1ccc2cc3cc4ccccc4cc3cc2c1 | 5.66 |
| CC(C)CC(C)(C)C | 4.54 |
| C1=CCCC1 [CYCLOPENTENE] | 2.25 |
| CC1=C(/C=C/C(C)=C/C=C/C(C)=C/CO)C(C)(C)CC=C1 [VITAMIN A2] | 7.41 |

Experiment: not given
Settings: octanol/water

| SMILES | logP |
| --- | --- |
| C=C1CC[C@H](O)C/C1=C/C=C1\CCC[C@]2(C)[C@@H]([C@H](C)/C=C/[C@H](C)C(C)C)CC[C@@H]12 [ERGOCALCIFEROL] | 10.44 |
| C[C@@H]1O[C@@H](OC[C@H]2O[C@@H](Oc3c(-c4ccc(O)c(O)c4)oc4cc(O)cc(O)c4c3=O)[C@H](O)[C@@H](O)[C@@H]2O)[C@H](O)[C@H](O)[C@H]1O [RUTIN] | -2.02 |
| CC1=C(C/C=C(\C)CCC[C@H](C)CCC[C@H](C)CCCC(C)C)C(=O)c2ccccc2C1=O [PHYTONADIONE] | 11.71 |
| C=C1CC[C@H](O)C/C1=C/C=C1\CCC[C@]2(C)[C@@H]([C@H](C)CCCC(C)C)CC[C@@H]12 [CHOLECALCIFEROL] | 10.24 |
| ClC(Cl)C(Cl)(Cl)Cl [PENTACHLOROETHANE] | 3.627 |
